Experimental data taken from PubChem BioAssay (NCI).
Where “and” joins values, the source holds several entries; their conditions need not be identical. Equal values may be shown once.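 How tested: cells in 96-well plates exposed to compound for 48 hours at five concentrations. GI50 = concentration required for 50% inhibition of growth. TGI marks complete inhibition of growth.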

What was measured:
Assay in all cases: growth of human tumour cells (NCI), 48 h
SF-295 CNS = system: SF-295 CNS
NCI-H23 lung = system: NCI-H23 lung
A549 NSCLC = system: A549 NSCLC
PC-3 prostate = system: PC-3 prostate
SW-620 colon = system: SW-620 colon
UO-31 renal = system: UO-31 renal
HCT-116 colon = system: HCT-116 colon
IGROV1 ovarian = system: IGROV1 ovarian
A498 renal = system: A498 renal
KM12 colon = system: KM12 colon

Compound	GI50 (SF-295 CNS) [µM]	TGI (SF-295 CNS)	GI50 (NCI-H23 lung) [µM]	TGI (NCI-H23 lung) [µM]	GI50 (A549 NSCLC)	TGI (A549 NSCLC)	GI50 (PC-3 prostate) [µM]	TGI (PC-3 prostate) [µM]	GI50 (SW-620 colon) [µM]	TGI (SW-620 colon)	GI50 (UO-31 renal)	TGI (UO-31 renal)	GI50 (HCT-116 colon) [µM]	TGI (HCT-116 colon)	GI50 (IGROV1 ovarian) [µM]	TGI (IGROV1 ovarian)	GI50 (A498 renal) [µM]	TGI (A498 renal) [µM]	GI50 (KM12 colon) [µM]	TGI (KM12 colon)
COc1cc(-c2ccc[nH]2)[nH]c1/C=C1\N=C(C)C(C(=O)NC(C)C)=C1C	2.9	11.4 µM	3.63	16	2.94 µM	10.5 µM	4.67	19.3	3.08	14.7 µM	2.72 µM	11 µM	1.52	4.25 µM	4.81	25.4 µM	8.91	21.6	1.93	13.7 µM
CCCCCCC1CCCCN1C(c1ccccc1)C(O)c1ccccc1 (stereo not drawn)	4.31	18.4 µM	6.33	20.9	7.62 µM	21.4 µM	6.93	20.6	5.35	18.4 µM	5.69 µM	19.8 µM	3.11	11.7 µM	8.62	22 µM	11.1	23.5	6.07	19.4 µM
Nc1nc2c(ncn2C2OC(CO)C(O)C2O)c(=O)[nH]1 (stereo not drawn)		> 100 µM and 184 µM		175	> 100 µM and 15.8 µM	> 100 µM and 170 µM	> 100	> 100	> 100	> 100 µM and 241 µM	> 100 µM	> 100 µM and 204 µM	> 100	> 100 µM and 201 µM	> 100	> 100 µM and 170 µM		8.79	> 100	> 100 µM and 224 µM
Cc1cc(=O)[nH]c2c1C(=O)c1c(C)cc(=O)n(C)c1C2=O		0.31 µM		0.03		0.399 µM		0.391		0.179 µM		0.318 µM		0.253 µM		0.437 µM		0.36		0.192 µM
CN1CCC(C(=O)Nc2n[nH]c3nnc(-c4ccccc4)cc23)CC1	17.5	> 25 µM	> 25	> 25	> 25 µM	> 25 µM	> 22.7	> 25	> 25	> 25 µM	> 25 µM	> 25 µM	> 23.6	> 25 µM	> 25	> 25 µM	5.67	> 21.5	19.4	> 25 µM
COc1ccc2c(c1)CCC1C2CCC2(C)C(NC(=O)CCCCC3CCSS3)CCC12 (stereo not drawn)	> 100	> 100 µM	> 100	> 100	32.5 µM	> 100 µM	7.18	> 100	> 100	> 100 µM	6.7 µM	> 100 µM	11.2	> 100 µM	4.92	> 100 µM	62.2	> 100	4.54	> 100 µM
CC(C)OC(=O)c1cc(NC(=S)OC(C)C)ccc1Cl		46.9 µM		68.1		> 66.8 µM		50.9		> 64.6 µM		54.3 µM		> 54.6 µM		> 56.2 µM		> 51.1		44.3 µM
COc1cc(C(=O)/C=C/c2c(C)n([O-])c3ccc(Cl)cc3[n+]2=O)cc(OC)c1OC	99.4	> 100 µM	7.59	68.6	25.4 µM	> 100 µM	26.9	> 100	2.57	11.7 µM	1.82 µM	18.1 µM	2.75	12.2 µM	9.07	> 100 µM	0.208	41	23.2	> 100 µM
O=C([CH-]C(=O)c1ccccc1)c1ccccc1.[CH2-]C.[CH2-]C.[Tl+3]	15.6	> 100 µM	32.3	> 100	20.7 µM	66.3 µM	32	> 100	26.5	> 100 µM	22.3 µM	> 77.2 µM	9.72	34.2 µM	24.4	> 100 µM	48.9	> 100	49.6	> 100 µM
COc1ccc(-c2nn(-c3cccc(Cl)c3)cc2-c2c(C#N)c(=O)n3[nH]c(-c4ccc(C)o4)nc3c2C#N)cc1	3.46	> 50 µM	8.09	> 50	4.57 µM	> 50 µM	2.25	> 50	9.21	> 50 µM	1.8 µM	38.9 µM	2.53	22.5 µM	2.6	18.5 µM	1.55	10.7	3.54	> 50 µM
c1ccc2[nH]c(-c3cscn3)nc2c1		> 100 µM		> 100		> 100 µM		> 100		> 100 µM	> 100 µM and 25.8 µM	> 100 µM		> 100 µM		> 100 µM		> 100		> 100 µM
Nc1nc2c([nH]1)c1[nH]c3ccccc3c1c1[nH]c3ccccc3c21	13.9	27.5 µM	13.7	29.5	17.1 µM	33.4 µM	11	23.1	3.31	12.4 µM	11 µM	22.9 µM	5.24	18 µM	10.2	22.6 µM	18.8	35	6.91	21.2 µM
NCC[PH+](c1ccccc1)c1ccccc1.NCC[PH+](c1ccccc1)c1ccccc1.[Cl-].[Pt+4]	> 100	> 100 µM	> 100	> 100	> 100 µM	> 100 µM	> 100	> 100	> 100	> 100 µM	> 100 µM	> 100 µM	46.1	> 100 µM	29.3	> 100 µM	> 100	> 100	> 100	> 100 µM
